Results taken from PubChem BioAssay (NCI).
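The concentration for 50% growth inhibition is given as GI50. The concentration for full growth arrest is given as TGI.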

Experiments:
Experiment in all cases: NCI tumour cell line growth inhibition, 384-well format
786-0 renal = tested on: 786-0 renal
A498 renal = tested on: A498 renal
A549 NSCLC = tested on: A549 NSCLC
ACHN renal = tested on: ACHN renal
BT-549 breast = tested on: BT-549 breast
CAKI-1 renal = tested on: CAKI-1 renal
CCRF-CEM leukemia = tested on: CCRF-CEM leukemia
COLO 205 colon = tested on: COLO 205 colon
DU-145 prostate = tested on: DU-145 prostate
EKVX NSCLC = tested on: EKVX NSCLC
HCC-2998 colon = tested on: HCC-2998 colon
HCT-116 colon = tested on: HCT-116 colon
HCT-15 colon = tested on: HCT-15 colon
HL-60(TB) leukemia = tested on: HL-60(TB) leukemia
HOP-62 NSCLC = tested on: HOP-62 NSCLC
HOP-92 NSCLC = tested on: HOP-92 NSCLC
HS 578T breast = tested on: HS 578T breast
HT29 colon = tested on: HT29 colon
IGROV1 ovarian = tested on: IGROV1 ovarian
K-562 leukemia = tested on: K-562 leukemia
KM12 colon = tested on: KM12 colon
LOX IMVI melanoma = tested on: LOX IMVI melanoma
M14 melanoma = tested on: M14 melanoma
MALME-3M melanoma = tested on: MALME-3M melanoma
MCF7 breast = tested on: MCF7 breast
MDA-MB-231 breast = tested on: MDA-MB-231 breast
MDA-MB-435 melanoma = tested on: MDA-MB-435 melanoma
MDA-MB-468 breast = tested on: MDA-MB-468 breast
MOLT-4 leukemia = tested on: MOLT-4 leukemia
NCI-H226 lung = tested on: NCI-H226 lung
NCI-H23 lung = tested on: NCI-H23 lung
NCI-H322M lung = tested on: NCI-H322M lung
NCI-H460 NSCLC = tested on: NCI-H460 NSCLC
NCI-H522 lung = tested on: NCI-H522 lung
NCI/ADR-RES ovarian = tested on: NCI/ADR-RES ovarian
OVCAR-3 ovarian = tested on: OVCAR-3 ovarian
OVCAR-4 ovarian = tested on: OVCAR-4 ovarian
OVCAR-5 ovarian = tested on: OVCAR-5 ovarian
OVCAR-8 ovarian = tested on: OVCAR-8 ovarian
PC-3 prostate = tested on: PC-3 prostate
RPMI-8226 leukemia = tested on: RPMI-8226 leukemia
RXF 393 renal = tested on: RXF 393 renal
SF-268 CNS = tested on: SF-268 CNS
SF-295 CNS = tested on: SF-295 CNS
SF-539 CNS = tested on: SF-539 CNS
SK-MEL-28 melanoma = tested on: SK-MEL-28 melanoma
SK-MEL-5 melanoma = tested on: SK-MEL-5 melanoma
SK-OV-3 ovarian = tested on: SK-OV-3 ovarian
SN12C renal = tested on: SN12C renal
SNB-19 CNS = tested on: SNB-19 CNS
SNB-75 CNS = tested on: SNB-75 CNS
SR leukemia = tested on: SR leukemia
SW-620 colon = tested on: SW-620 colon
T-47D breast = tested on: T-47D breast
TK-10 renal = tested on: TK-10 renal
U251 glioblastoma = tested on: U251 glioblastoma
UACC-257 melanoma = tested on: UACC-257 melanoma
UO-31 renal = tested on: UO-31 renal

Q: Which results are given for `COc1ccc2c(c[n+](C)c3c4cc5c(cc4ccc23)OCO5)c1OC`?
A: GI50 (786-0 renal): 1340 nM; TGI (786-0 renal): 2630 nM; GI50 (A498 renal): 1870 nM; TGI (A498 renal): 3.39 µM; GI50 (A549 NSCLC): 1830 nM; TGI (A549 NSCLC): 3.27 µM; GI50 (ACHN renal): 1820 nM; TGI (ACHN renal): 3.21 µM; GI50 (BT-549 breast): 680 nM; TGI (BT-549 breast): 1940 nM; GI50 (CAKI-1 renal): 1270 nM; TGI (CAKI-1 renal): 2560 nM; GI50 (CCRF-CEM leukemia): 146 nM; TGI (CCRF-CEM leukemia): 278 nM; GI50 (COLO 205 colon): 1570 nM; TGI (COLO 205 colon): 2920 nM; GI50 (DU-145 prostate): 1460 nM; TGI (DU-145 prostate): 2770 nM; GI50 (EKVX NSCLC): 1450 nM; TGI (EKVX NSCLC): 2760 nM; GI50 (HCC-2998 colon): 1590 nM; TGI (HCC-2998 colon): 2940 nM; GI50 (HCT-116 colon): 399 nM; TGI (HCT-116 colon): 1380 nM; GI50 (HCT-15 colon): 825 nM; TGI (HCT-15 colon): 2070 nM; GI50 (HL-60(TB) leukemia): 182 nM; TGI (HL-60(TB) leukemia): 324 nM; GI50 (HOP-62 NSCLC): 1060 nM; TGI (HOP-62 NSCLC): 2250 nM; GI50 (HOP-92 NSCLC): 1510 nM; TGI (HOP-92 NSCLC): 2850 nM; GI50 (HS 578T breast): 1550 nM; TGI (HS 578T breast): 2890 nM; GI50 (HT29 colon): 1680 nM; TGI (HT29 colon): 3.05 µM; GI50 (IGROV1 ovarian): 1620 nM; TGI (IGROV1 ovarian): 2970 nM; GI50 (K-562 leukemia): 1610 nM; TGI (K-562 leukemia): 2970 nM; GI50 (KM12 colon): 1470 nM; TGI (KM12 colon): 2800 nM; GI50 (LOX IMVI melanoma): 1100 nM; TGI (LOX IMVI melanoma): 2310 nM; GI50 (M14 melanoma): 1590 nM; TGI (M14 melanoma): 2940 nM; GI50 (MALME-3M melanoma): 748 nM; TGI (MALME-3M melanoma): 1960 nM; GI50 (MCF7 breast): 1130 nM; TGI (MCF7 breast): 2350 nM; GI50 (MDA-MB-231 breast): 721 nM; TGI (MDA-MB-231 breast): 1990 nM; GI50 (MDA-MB-435 melanoma): 1630 nM; TGI (MDA-MB-435 melanoma): 2990 nM; GI50 (MDA-MB-468 breast): 365 nM; TGI (MDA-MB-468 breast): 1360 nM; GI50 (MOLT-4 leukemia): 163 nM; TGI (MOLT-4 leukemia): 300 nM; GI50 (NCI-H226 lung): 1830 nM; TGI (NCI-H226 lung): 3.22 µM; GI50 (NCI-H23 lung): 1000 nM; TGI (NCI-H23 lung): 2160 nM; GI50 (NCI-H322M lung): 1770 nM; TGI (NCI-H322M lung): 3.19 µM; GI50 (NCI-H460 NSCLC): 1520 nM; TGI (NCI-H460 NSCLC): 2850 nM; GI50 (NCI-H522 lung): 1440 nM; TGI (NCI-H522 lung): 2750 nM; GI50 (NCI/ADR-RES ovarian): 1020 nM; TGI (NCI/ADR-RES ovarian): 2590 nM; GI50 (OVCAR-3 ovarian): 362 nM; TGI (OVCAR-3 ovarian): 1330 nM; GI50 (OVCAR-4 ovarian): 1500 nM; TGI (OVCAR-4 ovarian): 2870 nM; GI50 (OVCAR-5 ovarian): 1760 nM; TGI (OVCAR-5 ovarian): 3.16 µM; GI50 (OVCAR-8 ovarian): 395 nM; TGI (OVCAR-8 ovarian): 1430 nM; GI50 (PC-3 prostate): 1190 nM; TGI (PC-3 prostate): 2420 nM; GI50 (RPMI-8226 leukemia): 440 nM; TGI (RPMI-8226 leukemia): 1460 nM; GI50 (RXF 393 renal): 1570 nM; TGI (RXF 393 renal): 2940 nM; GI50 (SF-268 CNS): 1340 nM; TGI (SF-268 CNS): 2620 nM; GI50 (SF-295 CNS): 1740 nM; TGI (SF-295 CNS): 3.15 µM; GI50 (SF-539 CNS): 1630 nM; TGI (SF-539 CNS): 2990 nM; GI50 (SK-MEL-28 melanoma): 1900 nM; TGI (SK-MEL-28 melanoma): 3.35 µM; GI50 (SK-MEL-5 melanoma): 720 nM; TGI (SK-MEL-5 melanoma): 2040 nM; GI50 (SK-OV-3 ovarian): 1710 nM; TGI (SK-OV-3 ovarian): 3.13 µM; GI50 (SN12C renal): 615 nM; TGI (SN12C renal): 1890 nM; GI50 (SNB-19 CNS): 1500 nM; TGI (SNB-19 CNS): 2840 nM; GI50 (SNB-75 CNS): 1640 nM; TGI (SNB-75 CNS): 3 µM; GI50 (SR leukemia): 174 nM; TGI (SR leukemia): 317 nM; GI50 (SW-620 colon): 267 nM; TGI (SW-620 colon): 758 nM; GI50 (T-47D breast): 1630 nM; TGI (T-47D breast): 2990 nM; GI50 (TK-10 renal): 1420 nM; TGI (TK-10 renal): 2730 nM; GI50 (U251 glioblastoma): 866 nM; TGI (U251 glioblastoma): 2080 nM; GI50 (UACC-257 melanoma): 1230 nM; TGI (UACC-257 melanoma): 2480 nM; GI50 (UO-31 renal): 1400 nM; TGI (UO-31 renal): 2700 nM
